Experimental findings from PubChem BioAssay AID488890 (Southern Research Specialized Biocontainment Screening …, 2010) are described below.

Each structure is given as a SMILES string. Inconclusive results are not listed. Activity calls are given as the source filed them. The rule behind the calls is not given here. Where only a bound is given, the exact number is not on record here.

In the experiment the test system is Mycobacterium tuberculosis non-replicating, growth inhibition. Kind of experiment: growth inhibition of non-replicating M. tuberculosis (AID 488890).
For orientation: IC50 means the point on the concentration scale where inhibition reaches its midpoint. Regarding `CCOC(=O)C1CCN(c2nc3cc(OC)ccc3cc2C#N)CC1`, the IC50 is 11.1 µM (inactive). The same measure for `O=c1c2c([N+](=O)[O-])cc([N+](=O)[O-])cc2nc2ccccn12`: 9.45 µM; for `CCOc1ccc(OCC(=O)Nc2nccs2)cc1`: 7.75 µM; for `COc1ccc(Cc2nnc(SCc3ccc([N+](=O)[O-])cc3)o2)cc1`: 3.16 µM. With `CCOc1ccc2nc(NC(=O)c3cnc(C)cn3)sc2c1`, the half-maximal inhibitory concentration (IC50) was 4.32 µM. `O=[N+]([O-])c1ccc(CN2CCN(c3ccccc3)CC2)o1`: the IC50 is 0.64 µM. The figure for `Cc1oc(=O)c(NC(=O)c2ccccc2)cc1C(=O)c1ccccc1` is 5.33 µM; for `O=[N+]([O-])c1ccc(/C=N/n2c(CO)nc3ccccc32)s1` it is 1.18 µM.

Consider `Cc1ccc(CN2CC(C(=O)OCc3ccccc3Cl)CC2=O)cc1` (configuration not stated), for which the IC50 is 8.11 µM. The figure for `CC(=O)Oc1ccc(/C=C2\N=C(C3CCCCC3)OC2=O)cc1` is 9.08 µM; for `COc1cccc(C(=O)N2N=C(c3ccccn3)CC2(O)C(F)(F)F)c1` (configuration not stated) it is 12.3 µM (inactive). The same measure for `O=C(OCC(=O)C12CC3CC(CC(C3)C1)C2)c1ccccn1`: 9.38 µM; for `O=C(NCCc1ccccc1)c1nc(-c2cccs2)no1`: 2.21 µM. The same measure for `CC(NC(=O)COc1ccc(-c2ccccc2)cc1)C1CCCO1` (configuration not stated): 8.2 µM; for `CCC1CCC(c2nnc(-c3ccc([N+](=O)[O-])cc3)o2)CC1` (configuration not stated): under 0.1 µM. Regarding `CCOC(=O)C1=C(c2ccccc2)NC(N)=NC1c1ccc(OCc2ccc(C(=O)OC)cc2)cc1` (configuration not stated), the IC50 is 5.85 µM.

As for `Clc1ccc(OCCOCCN2CCc3ccccc3C2)c(Cl)c1`, the IC50 is 11.2 µM (inactive). Take `C/C(=N\NC(=O)c1ccncc1)c1cc2ccccc2oc1=O`: the half-maximal inhibitory concentration (IC50) is 0.43 µM.

As to `O=C(Cc1ccc(F)cc1)Nc1ccc(Cl)cn1`, the IC50 is 14.2 µM (inactive). On to `Cc1cccc(CSc2nnc(-c3ccco3)o2)c1`, for which the half-maximal inhibitory concentration (IC50) is 0.67 µM. Take `COc1ccc(-c2nnn(CC(=O)OC3CCCCC3)n2)cc1OC`: the IC50 was 7.74 µM. On to `COc1ccc([N+](=O)[O-])c(S(=O)(=O)c2ccc(Cl)cc2)n1`, for which the IC50 is 1 µM. The same measure for `CC1CCN(CCc2nc3cc(NC(=O)COc4ccc(Cl)cc4)ccc3n2C)CC1`: 17.4 µM (inactive); for `Cc1ccccc1-n1nnc2c(=O)oc3ccccc3c21`: 0.44 µM; for `O=C(COC(=O)c1ccc(Br)o1)Nc1ncc([N+](=O)[O-])s1`: 14.4 µM (inactive). The same measure for `Cc1ccc(-c2nnc(Cc3ccc([N+](=O)[O-])cc3)o2)cc1`: 1.77 µM; for `O=c1[nH]c2ccccc2c2oc(CCl)nc12`: 4.22 µM; for `Cc1cc(Br)ccc1OCCCCN1CCCCC1`: 14.4 µM (inactive). The figure for `COc1ccc(S(=O)(=O)NCc2ccc3c(c2)cc(C)n3C)cc1` is 19.9 µM (inactive); for `CN(C)CCCNc1nc2sc3c(c2c(=O)n1CCc1ccccc1)CCCCC3` it is 12 µM (inactive); for `COC(=O)c1cccc(COC(=O)c2cc3ccccc3oc2=O)c1` it is 11.7 µM (inactive). In the case of `CC(=O)N1CCN(c2cc3c(cc2F)c(=O)c(C(=O)O)cn3C2CC2)CC1`, the IC50 was 1.42 µM. With `COc1cccc2sc(N3CCN(C(=O)c4ccc([N+](=O)[O-])o4)CC3)nc12`, the half-maximal inhibitory concentration (IC50) is under 0.1 µM.

With `N#Cc1nc(-c2ccc(OCc3ccccc3)cc2)oc1NCCCn1ccnc1`, the IC50 is 15.4 µM (inactive). The figure for `O=[N+]([O-])c1ccc(/C=N/NS(=O)(=O)c2ccc(Cl)cc2)o1` is 14.7 µM (inactive). For `O=C(COc1cccc2ccccc12)Nc1nc2ccccc2[nH]1`, the 50% inhibitory concentration (IC50) was 5.36 µM.

Turning to `Cc1cc(N2CCC(C)CC2)nc(NCc2ccccc2)n1`, the IC50 was 16.4 µM (inactive). The same measure for `CCOC(=O)CNCCC(=O)c1ccc(Br)cc1`: 4.35 µM; for `COc1ccc(C(C)NC(=O)CCc2ccccc2)cc1` (configuration not stated): 34.9 µM (inactive); for `COc1cccc(COC(=O)CCNC(=O)c2ccc(Cl)cc2)c1OC`: 11.8 µM (inactive). The figure for `O=C(COC(=O)c1ccc(O)cc1O)c1ccc2c(c1)OCO2` is 25.9 µM (inactive); for `Cc1cc(C(=O)N/N=C/c2ccc(OC(=O)c3ccccc3Br)cc2)n[nH]1` it is 15.6 µM (inactive).

As for `CN1CCN(c2ccc(NC(=O)c3ccc(-c4ccc(Br)cc4)o3)cc2)CC1`, the 50% inhibitory concentration (IC50) is 4.06 µM. Turning to `Cc1ccnc(NC(=O)c2cc3ccccc3o2)c1`, the IC50 was 4.74 µM.

For the compound `N#CC(C(=O)Nc1ccccc1)=C1Nc2ccccc2N1`, the IC50 is 37.8 µM (inactive). The same measure for `O=C(Nc1nc(-c2cc(F)ccc2F)cs1)c1ccccn1`: 2.28 µM; for `Cc1ccc(C(=O)Nc2nnc(C3=COCCO3)o2)cc1C`: 9.19 µM; for `CCc1ccc(OCCCC(=O)NCc2ccco2)cc1`: 5.18 µM. The figure for `CCS(=O)(=O)c1ncc(Cl)c(C(=O)Nc2ccc(C)cc2)n1` is 4.64 µM.

On to `CC(=O)Nc1sc2c(c1-c1nc3ccccc3s1)CCN(C(C)C)C2`, for which the IC50 is 6.35 µM. The figure for `N[C@@H](Cc1ccccc1)c1nnc(SC/C=C/c2ccccc2)o1` is 3.49 µM.

For `Cc1cccc(N2CCN(C(=O)Cn3sc4nc(C)cc(C)c4c3=O)CC2C)c1` (configuration not stated), the IC50 is 2.7 µM. The figure for `Cc1ccc(CNC(=O)c2ccc([N+](=O)[O-])o2)cc1` is 0.46 µM; for `Cc1c(C(=O)NNC(=O)c2csc(N3CCOCC3)n2)oc2ccccc12` it is 7.63 µM. The figure for `CC1=CC(=O)NP(=O)(Oc2ccc3ccccc3c2)N1` (configuration not stated) is 7.95 µM. The same measure for `O=C1/C(=C\c2ccco2)SC(=S)N1c1ccc(O)cc1`: 33.3 µM (inactive); for `CCCNC(=O)COC(=O)c1cc2c(=O)n3ccccc3nc2s1`: 23.6 µM (inactive); for `COc1cccc(OCCNC(=O)c2cc([N+](=O)[O-])cc([N+](=O)[O-])c2)c1`: 0.49 µM. On to `O=C(c1ccc([N+](=O)[O-])o1)N1CCc2ccccc2C1`, for which the IC50 was 5.15 µM.

For the compound `O=C(Nc1ccccc1F)c1ccc(Br)o1`, the IC50 was 13.4 µM (inactive).

For `CCOC(=O)COc1ccc2ccccc2c1/C=C/[N+](=O)[O-]`, the IC50 is 2.32 µM. The figure for `COc1cccc2[nH]c3c(Cl)ncnc3c12` is 17.4 µM (inactive); for `Nc1ccccc1C#CC(=O)c1ccccc1` it is under 0.1 µM; for `Cc1ccc(C(=O)n2c(N)nc3ccccc32)cc1` it is 16.6 µM (inactive).

Turning to `O=C1NC(=O)N(CCc2ccc(F)cc2)C(=O)/C1=C/C=C/c1ccccc1`, the 50% inhibitory concentration (IC50) is 5.37 µM. Take `COc1ccc(/C=C2\COc3ccccc3C2=O)cc1OC`: the IC50 is 12.5 µM (inactive). As for `CCOC(=O)CCNC(=O)c1ccc2nc(C3CCCCC3)oc2c1`, the IC50 was 28.8 µM (inactive). In the case of `Nc1ncnc(Oc2cccc3cccnc23)c1[N+](=O)[O-]`, the half-inhibitory concentration (IC50) is 4.36 µM. Turning to `CCn1nnc(NC(=O)c2ccc([N+](=O)[O-])o2)n1`, the IC50 is 9.04 µM. In the case of `Cc1ccc2c(c1)C(=O)C(=O)N2CCCOc1ccccc1`, the IC50 was 22.9 µM (inactive). The figure for `O=C1CCC(=O)N1CNc1ccc(Oc2ccccc2)cc1` is 2.02 µM; for `COc1ccc(-c2[nH]ncc2CN2CCCCCCC2)c(OC)c1` it is 11 µM (inactive); for `Cn1cnc([N+](=O)[O-])c1Sc1ccc([N+](=O)[O-])cc1` it is 19.7 µM (inactive).

With `COc1ccc(CCCC(=O)NCc2ccccc2)cc1C`, the IC50 is 5.26 µM. The figure for `O=C(CC1CC2CCC1C2)NCc1cccs1` (configuration not stated) is 1.69 µM; for `O=C(O)c1[nH]c(=O)[nH]c(=O)c1F` it is 5.7 µM; for `CN(CC(=O)Nc1ccc(Cl)cc1)C1CCCCC1` it is under 0.1 µM.

With `On1onc2c3cc(-c4ccccc4)nc3ccc21`, the IC50 is 0.31 µM. The same measure for `CCn1c(NC(=O)c2nn(C)cc2Br)nc2ccccc21`: 4.97 µM. The figure for `O=C1c2cccc3cc([N+](=O)[O-])cc(c23)C(=O)N1c1ccccc1O` is 15.1 µM (inactive); for `CCn1c(/C=N/NC(=O)c2ccc(OC)cc2)nc2ccccc21` it is 7.78 µM; for `CSc1ccccc1NC(=O)c1cc(C(C)C)on1` it is 22.2 µM (inactive).

For the compound `COc1ccc(OCC(=O)N/N=C2\CCc3ccccc32)cc1`, the concentration for half-maximal inhibition (IC50) was 9.35 µM. `N/N=C(/Cc1nc2ccccc2[nH]1)c1ccc([N+](=O)[O-])cc1`: the half-inhibitory concentration (IC50) was 1.06 µM. In the case of `O=C(COc1ccccc1)NNc1nc2ccccc2s1`, the IC50 is 34.2 µM (inactive). The figure for `CCOC(=O)COc1ccc2c(c1)c(C(C)=O)c(C)n2Cc1ccccc1` is 4.62 µM.

On to `CC(C)(C)c1ccc(OCCC(=O)OCC(=O)NC2CC2)cc1`, for which the IC50 is 23.6 µM (inactive). The figure for `FC(F)(F)c1nnc2ccc(Cl)nn12` is 1.56 µM. The figure for `Cc1ccn2nc(S(=O)(=O)Nc3c(F)cccc3F)nc2n1` is 17.5 µM (inactive); for `CCOC(=O)C1(CCc2ccccc2)CCN(Cc2ccccn2)CC1` it is 13.6 µM (inactive). The figure for `Cc1ccc(C(=O)CCNc2ccc(Br)cc2)o1` is 1.84 µM.

As for `O=[N+]([O-])c1ncccc1Oc1nc(-c2cccnc2)nc2ccccc12`, the IC50 is 0.73 µM. The figure for `O=[N+]([O-])c1ccc(CNc2cccc(Cl)c2)s1` is 43.7 µM (inactive). The same measure for `C=CCNc1nnc(Sc2ncccc2[N+](=O)[O-])s1`: 4.7 µM; for `Cc1ccc(NC(=S)C2=C(O)c3sccc3N(C)S2(=O)=O)cc1`: 22.3 µM (inactive). `O=c1cc(-c2ccccc2Cl)oc2ccc([N+](=O)[O-])c(O)c12`: the IC50 was 1.59 µM. On to `N#CC(C#N)=c1ccc2c(c1)NC1(CCCCC1)N=2`, for which the IC50 is 5.71 µM.

Regarding `O=c1c2cc(Cl)ccc2nc(-c2ccc(Cl)c(Cl)c2)n1O`, the IC50 is under 0.1 µM. For `O=C(NCCSc1ccccc1)c1ccc(Br)cc1`, the IC50 is 32.1 µM (inactive). Turning to `O=C(Nc1ccccc1N1CCCC1)c1cccc(F)c1`, the IC50 was 24.4 µM (inactive). For `Cc1cc(C)nc(-n2nc(C)cc2Nc2ccccc2)n1`, the IC50 was 5.25 µM. For the compound `C=CCn1c(C)cc(C2=NNC(=NCc3ccccc3)SC2)c1C`, the IC50 was 7.71 µM.
